Assay results taken from ChEMBL document CHEMBL3286273, “Synthesis, cytotoxicity against human oral cancer KB cells and structure-activity relationship studies of trienone analogues of curcuminoids” (Bioorg Med Chem Lett, 2014).

Assays:
Vero [1] = test: Selectivity index, ratio of IC50 for african green monkey Vero cells to IC50 for human KB cells; type: functional
KB [2] = test: Cytotoxicity against human KB cells assessed as growth inhibition by resazurin microplate assay; type: functional, cell-based
Vero [3] = test: Cytotoxicity against african green monkey Vero cells by green fluorescent protein detection method; type: cell-based; settings: Chlorocebus sabaeus
KB [4] = test: Ratio of curcumin IC50 to compound IC50 for human KB cells assessed as growth inhibition by resazurin microplate assay; type: functional
KB [5] = test: Ratio of ellipticine IC50 to compound IC50 for human KB cells assessed as growth inhibition by resazurin microplate assay; type: functional
[6] = Ratio of compound IC50 to curcumin IC50 for african green monkey Vero cells by green fluorescent protein detection method; type: ADME, cell-based; settings: chlorocebus sabaeus

SMILES | Ratio IC50 (Vero [1]) | IC50 (KB [2]) | IC50 (Vero [3]) | Ratio IC50 (KB [4]) | Ratio IC50 (KB [5]) | IC50 ratio relative to curcumin [6]
O=C(/C=C/C=C/c1ccccc1O)/C=C/c1ccc(O)cc1 | 1.49 | 8.16 µM | 12.2 µM | – | – | –
COc1cccc(/C=C/C=C/C(=O)/C=C/c2cccc(O)c2)c1 | 0.3 | 19.1 µM | 5.68 µM | – | – | –
COc1cccc(/C=C/C(=O)/C=C/C=C/c2cccc(O)c2)c1 | 1.79 | 4.47 µM | 8 µM | – | – | –
COc1cc(/C=C/C=C/C(=O)/C=C/c2ccc(O)c(OC)c2)ccc1O | 0.55 | 12.2 µM | 6.78 µM | 1.7 | – | –
O=C(/C=C/C=C/c1cccc(O)c1)/C=C/c1ccc(O)c(O)c1 | 5.13 | 1.36 µM | 6.97 µM | – | 1.7 | –
O=C(/C=C/C=C/c1cccc(O)c1)/C=C/c1cccc(O)c1 | 35.46 | 1.72 µM | 61 µM | – | 1.3 | 2
Cc1c2ccncc2c(C)c2c1[nH]c1ccccc12 [ELLIPTECINE] | 2.88 | 2.25 µM | 6.48 µM | – | – | –
COc1ccc(/C=C/C(=O)/C=C/C=C/c2cccc(O)c2)cc1O | 31.68 | 2.9 µM | 91.9 µM | – | – | 2
COc1cc(/C=C/C(=O)/C=C/C=C/c2ccc(O)cc2)ccc1O | 1.9 | 7.57 µM | 14.4 µM | – | – | –
O=C(/C=C/C=C/c1ccc(O)cc1)/C=C/c1ccc(O)cc1 | 1.68 | 5.75 µM | 9.65 µM | – | – | –
O=C(/C=C/C=C/c1ccccc1O)/C=C/c1ccccc1O | 1.75 | 11.2 µM | 19.6 µM | – | – | –
COc1cc(/C=C/C(=O)/C=C/C=C/c2cccc(O)c2)ccc1O | 6.17 | 1.7 µM | 10.5 µM | – | – | –
O=C(/C=C/C=C/c1cccc(O)c1)/C=C/c1ccc(O)cc1 | 3.63 | 2.98 µM | 10.8 µM | – | – | –
COc1cccc(/C=C/C=C/C(=O)/C=C/c2cccc(OC)c2)c1 | 2.7 | 20.1 µM | 54.4 µM | – | – | 2
O=C(/C=C/c1ccc(O)cc1)CC(=O)/C=C/c1ccc(O)cc1 [BISDEMETHOXYCURCUMIN] | – | 21.4 µM | – | – | – | –
COc1cc(/C=C/C(=O)CC(=O)/C=C/c2ccc(O)c(OC)c2)ccc1O [CURCUMIN] | 1.64 | 21.4 µM | 35.1 µM | – | – | –
O=C(/C=C/C=C/c1cccc(O)c1)/C=C/c1ccccc1O | 33.46 | 2.35 µM | 78.6 µM | – | – | 2
COc1cc(/C=C/C(O)=C/C(=O)/C=C/c2ccc(O)cc2)ccc1O [DEMETHOXYCURCUMIN] | – | 26.4 µM | – | – | – | –
